# Test results: patent US20170190705A1, “Compositions and Methods for Inhibiting BMP” (THE BRIGHAM AND WOMAN'S HOSPITAL, INC., priority 2014, published 2017)
# Legend:
# Assay type in all cases: biochemical
# [1] = target: ERBB4 (Homo sapiens, UniProt Q15303); assay: Kinome profiling ERBB4; conditions: read-out: Inhibitory activity ERBB4; for inhibition at 0.1 µM: 100 nM
# Protocol: (§1) . The kinome-wide selectivity was determined following the methods previously reported by Mohedas et al., ACS Chem Biol 2013, 8, 1291-1302 and Sanvitale et al., PLoS One 2013, 8, e62721.
# [2] = target: T1, TEC (Homo sapiens, UniProt P42680); assay: Kinome profiling TEC; conditions: read-out: Inhibitory activity TEC; for inhibition at 0.1 µM: 100 nM
# T1 sequence (P42680 1-631): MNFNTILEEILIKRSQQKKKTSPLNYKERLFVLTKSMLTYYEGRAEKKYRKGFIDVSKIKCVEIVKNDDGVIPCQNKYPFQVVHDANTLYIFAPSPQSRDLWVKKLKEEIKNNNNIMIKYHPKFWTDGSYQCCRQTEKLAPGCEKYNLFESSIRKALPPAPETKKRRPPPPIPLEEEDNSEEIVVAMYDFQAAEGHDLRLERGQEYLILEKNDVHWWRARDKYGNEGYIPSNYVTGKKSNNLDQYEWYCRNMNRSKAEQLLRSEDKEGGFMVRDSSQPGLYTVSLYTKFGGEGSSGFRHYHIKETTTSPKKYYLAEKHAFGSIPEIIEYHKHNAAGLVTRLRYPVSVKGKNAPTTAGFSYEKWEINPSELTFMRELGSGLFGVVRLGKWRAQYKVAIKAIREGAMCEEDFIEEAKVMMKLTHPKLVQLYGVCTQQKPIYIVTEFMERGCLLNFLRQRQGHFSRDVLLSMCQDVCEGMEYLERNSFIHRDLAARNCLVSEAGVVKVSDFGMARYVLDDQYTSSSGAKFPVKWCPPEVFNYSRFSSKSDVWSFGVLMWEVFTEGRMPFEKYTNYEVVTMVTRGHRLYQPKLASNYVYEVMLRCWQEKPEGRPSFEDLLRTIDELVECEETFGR
# Protocol: as §1
# [3] = target: ROCK1 (Homo sapiens, UniProt Q13464); assay: Kinome profiling ROCK1; conditions: read-out: Inhibitory activity ROCK1; for inhibition at 0.1 µM: 100 nM
# Protocol: as §1
# [4] = target: MEK1 (Homo sapiens, UniProt Q02750); assay: Kinome profiling MEK1; conditions: read-out: Inhibitory activity MEK1; for inhibition at 0.1 µM: 100 nM
# Protocol: as §1
# [5] = target: T2, EPHB4 (Homo sapiens, UniProt P54760); assay: Kinome profiling EPHB4; conditions: read-out: Inhibitory activity EPHB4; for inhibition at 0.1 µM: 100 nM
# T2 sequence (P54760 16-987): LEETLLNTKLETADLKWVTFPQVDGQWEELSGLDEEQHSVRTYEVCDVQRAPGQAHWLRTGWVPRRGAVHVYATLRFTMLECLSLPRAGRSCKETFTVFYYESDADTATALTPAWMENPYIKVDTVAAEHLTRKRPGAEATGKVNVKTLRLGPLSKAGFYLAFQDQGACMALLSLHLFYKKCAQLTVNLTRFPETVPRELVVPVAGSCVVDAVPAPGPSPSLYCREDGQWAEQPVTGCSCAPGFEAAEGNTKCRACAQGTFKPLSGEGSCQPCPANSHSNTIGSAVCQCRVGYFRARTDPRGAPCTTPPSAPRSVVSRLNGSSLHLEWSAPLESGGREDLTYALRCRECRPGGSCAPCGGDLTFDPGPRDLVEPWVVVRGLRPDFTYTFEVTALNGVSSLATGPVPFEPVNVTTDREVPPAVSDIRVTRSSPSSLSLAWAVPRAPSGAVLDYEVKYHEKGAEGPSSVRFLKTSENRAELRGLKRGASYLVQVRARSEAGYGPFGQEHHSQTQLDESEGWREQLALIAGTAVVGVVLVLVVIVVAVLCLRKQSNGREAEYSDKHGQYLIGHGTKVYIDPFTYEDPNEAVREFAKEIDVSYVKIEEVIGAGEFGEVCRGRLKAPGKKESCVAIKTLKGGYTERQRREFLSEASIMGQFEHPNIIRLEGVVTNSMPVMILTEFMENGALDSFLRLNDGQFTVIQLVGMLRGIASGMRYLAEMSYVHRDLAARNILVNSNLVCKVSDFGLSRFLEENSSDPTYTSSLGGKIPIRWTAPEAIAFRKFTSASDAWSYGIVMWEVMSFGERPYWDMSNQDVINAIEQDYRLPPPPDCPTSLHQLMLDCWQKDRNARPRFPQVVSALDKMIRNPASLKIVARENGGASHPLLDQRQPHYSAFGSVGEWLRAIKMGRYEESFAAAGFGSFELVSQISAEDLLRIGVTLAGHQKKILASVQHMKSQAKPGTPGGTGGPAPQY
# Protocol: as §1
# [6] = target: T3, IRAK4 (Homo sapiens, UniProt Q9NWZ3); assay: Kinome profiling IRAK4; conditions: read-out: Inhibitory activity IRAK4; for inhibition at 0.1 µM: 100 nM
# T3 sequence (Q9NWZ3 1-460): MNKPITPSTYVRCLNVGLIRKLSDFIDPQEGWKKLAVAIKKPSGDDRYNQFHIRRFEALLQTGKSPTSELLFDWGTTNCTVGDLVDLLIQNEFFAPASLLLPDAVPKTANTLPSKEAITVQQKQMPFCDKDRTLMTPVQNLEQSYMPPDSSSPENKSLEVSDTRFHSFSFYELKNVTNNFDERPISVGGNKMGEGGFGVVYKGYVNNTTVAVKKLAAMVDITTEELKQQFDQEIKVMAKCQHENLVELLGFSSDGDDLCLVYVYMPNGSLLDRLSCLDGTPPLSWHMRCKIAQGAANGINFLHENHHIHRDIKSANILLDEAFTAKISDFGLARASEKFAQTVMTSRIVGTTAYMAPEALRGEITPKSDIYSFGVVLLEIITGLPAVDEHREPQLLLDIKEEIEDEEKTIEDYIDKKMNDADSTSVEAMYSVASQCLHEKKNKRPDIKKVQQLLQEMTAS
# Protocol: as §1
# [7] = target: CK1-γ2 (Homo sapiens, UniProt P78368); assay: Kinome profiling CK1-γ2; conditions: read-out: Inhibitory activity CK1-γ2; for inhibition at 0.1 µM: 100 nM
# Protocol: as §1
# [8] = target: NEK7 (Homo sapiens, UniProt Q8TDX7); assay: Kinome profiling NEK7; conditions: read-out: Inhibitory activity NEK7; for inhibition at 0.1 µM: 100 nM
# Protocol: as §1
# [9] = target: BRK (Homo sapiens, UniProt Q13882); assay: Kinome profiling BRK; conditions: read-out: Inhibitory activity BRK; for inhibition at 0.1 µM: 100 nM
# Protocol: as §1
# [10] = target: NEK6 (Homo sapiens, UniProt Q9HC98); assay: Kinome profiling NEK6; conditions: read-out: Inhibitory activity NEK6; for inhibition at 0.1 µM: 100 nM
# Protocol: as §1
# MEK1, sequence (Q02750 whole entry): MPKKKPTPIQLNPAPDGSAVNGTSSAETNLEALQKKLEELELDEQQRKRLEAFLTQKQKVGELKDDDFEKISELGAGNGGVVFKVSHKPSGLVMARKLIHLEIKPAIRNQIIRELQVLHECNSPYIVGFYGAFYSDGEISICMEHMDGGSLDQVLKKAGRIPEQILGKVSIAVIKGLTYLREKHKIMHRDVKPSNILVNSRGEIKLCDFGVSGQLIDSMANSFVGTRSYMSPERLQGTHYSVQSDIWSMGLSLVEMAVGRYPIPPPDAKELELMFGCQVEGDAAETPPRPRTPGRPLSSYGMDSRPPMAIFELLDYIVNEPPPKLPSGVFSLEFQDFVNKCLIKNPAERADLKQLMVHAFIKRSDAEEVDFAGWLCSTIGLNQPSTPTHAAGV
# NEK6, sequence (Q9HC98 whole entry): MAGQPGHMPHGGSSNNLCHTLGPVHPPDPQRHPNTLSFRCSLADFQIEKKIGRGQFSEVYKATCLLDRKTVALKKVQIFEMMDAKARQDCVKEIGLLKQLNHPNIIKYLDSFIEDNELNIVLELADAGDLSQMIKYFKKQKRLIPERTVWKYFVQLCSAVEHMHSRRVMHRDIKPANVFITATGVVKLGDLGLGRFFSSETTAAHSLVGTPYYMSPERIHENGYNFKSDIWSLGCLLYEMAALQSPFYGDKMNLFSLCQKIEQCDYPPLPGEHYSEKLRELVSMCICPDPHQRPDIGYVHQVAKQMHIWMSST
# ERBB4, sequence (Q15303 26-1308): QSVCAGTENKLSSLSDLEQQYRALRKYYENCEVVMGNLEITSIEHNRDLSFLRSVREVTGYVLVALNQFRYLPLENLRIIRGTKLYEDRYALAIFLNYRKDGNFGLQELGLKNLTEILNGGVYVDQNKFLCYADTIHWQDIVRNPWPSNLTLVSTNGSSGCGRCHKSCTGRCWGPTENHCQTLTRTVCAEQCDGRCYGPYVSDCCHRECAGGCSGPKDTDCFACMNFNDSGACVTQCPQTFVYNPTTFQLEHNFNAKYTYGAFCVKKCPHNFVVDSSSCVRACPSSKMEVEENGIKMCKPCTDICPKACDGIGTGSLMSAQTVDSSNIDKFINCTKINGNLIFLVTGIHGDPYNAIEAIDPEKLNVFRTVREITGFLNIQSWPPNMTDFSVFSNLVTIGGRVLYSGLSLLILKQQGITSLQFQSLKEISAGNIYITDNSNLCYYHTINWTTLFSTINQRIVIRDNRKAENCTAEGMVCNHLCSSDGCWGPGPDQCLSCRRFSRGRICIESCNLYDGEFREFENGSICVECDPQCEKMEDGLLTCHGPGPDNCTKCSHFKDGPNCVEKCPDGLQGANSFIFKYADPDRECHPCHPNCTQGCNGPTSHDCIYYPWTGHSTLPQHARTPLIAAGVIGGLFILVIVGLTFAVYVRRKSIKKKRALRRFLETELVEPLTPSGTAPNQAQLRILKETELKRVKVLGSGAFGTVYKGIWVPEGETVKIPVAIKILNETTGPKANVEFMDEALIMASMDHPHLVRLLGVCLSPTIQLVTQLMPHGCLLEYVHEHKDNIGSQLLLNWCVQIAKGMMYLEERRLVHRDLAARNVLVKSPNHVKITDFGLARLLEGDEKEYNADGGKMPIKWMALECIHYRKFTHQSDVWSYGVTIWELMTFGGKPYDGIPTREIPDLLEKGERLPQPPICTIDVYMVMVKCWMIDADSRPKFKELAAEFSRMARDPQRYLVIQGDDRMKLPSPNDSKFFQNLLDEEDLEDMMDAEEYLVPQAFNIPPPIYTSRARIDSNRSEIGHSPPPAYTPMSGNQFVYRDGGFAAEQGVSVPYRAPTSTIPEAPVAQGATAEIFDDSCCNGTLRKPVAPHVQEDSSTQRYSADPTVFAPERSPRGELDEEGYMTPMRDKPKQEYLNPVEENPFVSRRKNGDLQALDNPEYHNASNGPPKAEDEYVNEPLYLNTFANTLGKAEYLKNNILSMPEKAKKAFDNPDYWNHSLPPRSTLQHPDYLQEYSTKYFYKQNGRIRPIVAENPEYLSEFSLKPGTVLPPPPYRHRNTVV
# ROCK1, sequence (Q13464 whole entry): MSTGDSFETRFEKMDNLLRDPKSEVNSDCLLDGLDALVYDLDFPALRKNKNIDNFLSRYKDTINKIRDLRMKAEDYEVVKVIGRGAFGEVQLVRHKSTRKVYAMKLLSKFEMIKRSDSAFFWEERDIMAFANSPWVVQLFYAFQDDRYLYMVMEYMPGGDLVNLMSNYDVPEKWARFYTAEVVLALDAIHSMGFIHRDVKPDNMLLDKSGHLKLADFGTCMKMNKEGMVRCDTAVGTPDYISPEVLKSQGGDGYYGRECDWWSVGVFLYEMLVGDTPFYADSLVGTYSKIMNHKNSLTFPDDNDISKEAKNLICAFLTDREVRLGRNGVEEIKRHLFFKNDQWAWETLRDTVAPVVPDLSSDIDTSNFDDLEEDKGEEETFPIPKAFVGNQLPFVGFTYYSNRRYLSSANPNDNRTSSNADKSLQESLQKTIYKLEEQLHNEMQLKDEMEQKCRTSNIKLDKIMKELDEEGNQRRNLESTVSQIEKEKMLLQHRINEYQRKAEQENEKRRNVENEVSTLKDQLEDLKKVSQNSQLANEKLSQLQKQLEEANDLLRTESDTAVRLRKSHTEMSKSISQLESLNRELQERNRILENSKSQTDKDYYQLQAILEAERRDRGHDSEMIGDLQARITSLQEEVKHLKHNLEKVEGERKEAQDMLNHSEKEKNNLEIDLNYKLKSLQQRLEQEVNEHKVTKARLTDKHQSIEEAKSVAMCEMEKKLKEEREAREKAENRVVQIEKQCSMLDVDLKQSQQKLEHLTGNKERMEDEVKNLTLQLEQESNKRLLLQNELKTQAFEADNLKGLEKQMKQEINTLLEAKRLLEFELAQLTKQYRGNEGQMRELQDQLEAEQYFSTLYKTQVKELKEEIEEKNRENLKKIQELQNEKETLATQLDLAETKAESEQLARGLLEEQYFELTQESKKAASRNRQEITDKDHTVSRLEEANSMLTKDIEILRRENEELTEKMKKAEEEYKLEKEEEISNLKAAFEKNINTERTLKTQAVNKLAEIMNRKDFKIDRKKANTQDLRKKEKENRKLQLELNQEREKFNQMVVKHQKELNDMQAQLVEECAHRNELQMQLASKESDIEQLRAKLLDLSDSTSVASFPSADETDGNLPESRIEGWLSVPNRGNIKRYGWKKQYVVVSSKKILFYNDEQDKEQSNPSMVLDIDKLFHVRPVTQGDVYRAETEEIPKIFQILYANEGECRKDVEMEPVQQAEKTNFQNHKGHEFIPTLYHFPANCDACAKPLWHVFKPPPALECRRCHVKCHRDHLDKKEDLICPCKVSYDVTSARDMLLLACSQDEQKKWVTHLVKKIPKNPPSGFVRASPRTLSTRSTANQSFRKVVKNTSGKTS
# NEK7, sequence (Q8TDX7 whole entry): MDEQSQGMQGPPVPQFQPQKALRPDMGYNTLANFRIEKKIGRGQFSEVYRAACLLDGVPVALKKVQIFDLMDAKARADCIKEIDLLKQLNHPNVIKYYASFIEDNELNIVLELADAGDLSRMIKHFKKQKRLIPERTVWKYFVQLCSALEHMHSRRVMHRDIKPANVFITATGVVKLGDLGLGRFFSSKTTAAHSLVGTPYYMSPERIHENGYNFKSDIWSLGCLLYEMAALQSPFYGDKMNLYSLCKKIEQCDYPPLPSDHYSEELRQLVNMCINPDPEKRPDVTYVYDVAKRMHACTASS
# CK1-γ2, sequence (P78368 whole entry): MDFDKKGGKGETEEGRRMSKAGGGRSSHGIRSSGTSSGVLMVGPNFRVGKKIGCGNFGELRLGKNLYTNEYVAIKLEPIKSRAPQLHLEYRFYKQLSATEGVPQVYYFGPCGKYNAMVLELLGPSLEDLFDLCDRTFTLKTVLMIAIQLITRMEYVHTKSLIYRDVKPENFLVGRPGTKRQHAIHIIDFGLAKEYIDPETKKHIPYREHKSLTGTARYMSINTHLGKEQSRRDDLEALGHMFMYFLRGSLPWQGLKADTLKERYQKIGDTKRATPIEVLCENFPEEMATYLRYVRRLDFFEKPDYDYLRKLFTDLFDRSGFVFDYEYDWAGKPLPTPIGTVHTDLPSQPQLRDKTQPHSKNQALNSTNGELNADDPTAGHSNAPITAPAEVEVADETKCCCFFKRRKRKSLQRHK
# BRK, sequence (Q13882 whole entry): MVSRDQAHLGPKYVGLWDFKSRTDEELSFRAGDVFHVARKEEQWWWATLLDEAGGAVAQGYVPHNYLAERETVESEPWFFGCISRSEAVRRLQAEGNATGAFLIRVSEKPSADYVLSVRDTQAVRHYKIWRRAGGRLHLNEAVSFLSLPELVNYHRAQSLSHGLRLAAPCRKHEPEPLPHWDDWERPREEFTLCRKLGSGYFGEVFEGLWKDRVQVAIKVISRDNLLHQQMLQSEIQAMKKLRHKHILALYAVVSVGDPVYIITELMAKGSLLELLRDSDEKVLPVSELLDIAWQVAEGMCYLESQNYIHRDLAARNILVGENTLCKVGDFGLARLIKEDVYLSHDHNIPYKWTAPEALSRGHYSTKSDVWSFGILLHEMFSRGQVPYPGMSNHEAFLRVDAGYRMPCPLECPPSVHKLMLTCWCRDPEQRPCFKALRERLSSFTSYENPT
Structure (SMILES),inhibition at 0.1 µM [1],inhibition at 1 µM [1],inhibition at 0.1 µM [2],inhibition at 1 µM [2],inhibition at 0.1 µM [3],inhibition at 1 µM [3],inhibition at 0.1 µM [4],inhibition at 1 µM [4],inhibition at 0.1 µM [5],inhibition at 1 µM [5],inhibition at 0.1 µM [6],inhibition at 1 µM [6],inhibition at 0.1 µM [7],inhibition at 1 µM [7],inhibition at 0.1 µM [8],inhibition at 1 µM [8],inhibition at 0.1 µM [9],inhibition at 1 µM [9],inhibition at 0.1 µM [10],inhibition at 1 µM [10]
"COc1cc(-c2cc(-c3ccc(N4CCNCC4)cc3)cnc2C)cc(OC)c1OC [Compound 10, 1-(4-(6-methyl-5-(3,4,5-trimethoxyphenyl)pyridin-3-yl)phenyl)piperazine]",4%,21%,0%,0%,1%,0%,0%,2%,5%,8%,0%,1%,1%,4%,4%,3%,7%,36%,1%,0%
"COc1cc(-c2cc(-c3ccc(N4CCNCC4)cc3)cnc2N)cc(OC)c1OC [Compound 15, 5-(4-(piperazin-1-yl)phenyl)-3-(3,4,5-trimethoxyphenyl)pyridin-2-amine]",9%,29%,5%,24%,0%,0%,3%,6%,7%,45%,1%,2%,3%,12%,9%,2%,43%,92%,0%,4%
